Read-outs that look alike come from different tables or passages of the source.
Tests used:
SCC cells = test: Real-time PCR Heat Shock Protein Array; format: cell-based
Excerpt: The control cells were untreated cells.
Heat Shock Arrays were run for SCC cells and the data of regulated genes is summarized below in Table 13.

a variety of cell types = test: Western blot analysis (Bcl-xL, Vimentin, oxidative phosphorylation and mitochondrial membrane proteins); format: cell-based; conditions: 50 or 100 μM Q10
Experimental: Approximately 50 μg of protein were assayed per sample by immunoblotting. All treatments were run in triplicate with controls. […] The primary antibodies were incubated overnight at 4 degrees C. in a 5% BSA and TBST solution. Secondary antibodies were incubated for one hour at 4 degrees. All antibodies were purchased from Cell Signaling Technology. Antibodies were used at a ratio of 1:1000, with the exception of βActin at a ratio of 1:5000. Blots were developed and results were quantified using the NIH Java based densitometer analysis software Image J. All blots were also probed for and normalized to their respective βActin expression.
The first experiment processed and evaluated by Western blot and 2-D gel electrophoresis was carried out on the skin cancer cell line SKMEL-28.
A variety of cell types were evaluated by Western blot analysis against an antibody for Bcl-xL (FIG. 14), an antibody for Vimentin (FIG. 15), a series of antibodies for mitochondrial oxidative phosphorylation function (FIGS. 16-21) and against a series of antibodies related to mitochondrial membrane integrity (FIGS. 22-27).

HASMC cells = test: Extracellular acidification rate (ECAR), SeaHorse XF analyzer; format: cell-based, human; conditions: hyperglycemic, hypoxic conditions
Excerpt: (SeaHorse Biosciences Inc, North Billerica, Mass.).
In this experiment, the OCR and extracellular acidification rate (ECAR) in normal cells lines were obtained in the presence and absence of CoQ10 to determine baseline values. It was observed that in its native nutrient environment, the basal OCR rates in normal cells lines are different, and are usually a function of the physiological roles of the cells in the body.
In Table 128 the measured baseline ECAR values (mpH/min) in HASMC were higher compared to that of HDFa. Induction of hypoxic conditions caused an increase in ECAR most likely associated with intracellular hypoxia induced acidosis secondary to increased glycolysis.

[1] = cited from earlier work
SKMEL-28 cells = test: 2-D gel electrophoresis proteomic analysis; format: cell-based
Experimental: For isolation of proteins, cells were washed three times with 5 mL of ice cold PBS at a pH of 7.4. The cells were then scraped in 3 mL of PBS, pelleted by centrifuge, and re-suspended in a lysis buffer at pH 7.4 (80 mM TRIS-HCl, 1% SDS, with protease and phosphotase inhibitors). Protein concentrations were quantified using the BCA method.
The gels were run in duplicate.
The first experimental set processed and evaluated by Western blot and 2-D gel electrophoresis was the skin cancer cell line SKMEL-28.
A comparative analysis of 943 spots across all twenty-four gels was performed, comparing the control sample against all of the treated samples. The analysis included the identification of spot changes over the time course due to increase, decrease, or post-translational modification.
The analysis found thirty-two statistically significant differential spot changes. […] The characterized peptides were searched against protein databases with Mascot and MSRAT software analysis to identify the protein (Table 2).

[2] = tested on: HepG2 (liver cancer) cells; test: PCR Diabetes Array; format: cell-based; conditions: 100 μM Q10, 48 hours
Experimental: The treatment was initiated on 1×10^5 cells per well, following the procedure utilized in the PaCa2 cells (above, Examples 9-11). However, the total amount of RNA that was extracted from these samples was lower than expected. Reverse transcription is normally done using 1 μg total RNA (determined by measurement at 260 nm). The maximum volume that can be used per reverse transcription is 8 μl.

SDH Subunit B = test: Western blot, Succinate Dehydrogenase B in mitochondrial preparations; format: cell-based; conditions: mitochondrial preparations of cancer cells
Experimental: The above blots were stripped by incubating for 30 minutes with methanol, followed by two 10 minute washes with TBS-T, then 30 minutes of incubation with Stripping buffer at 50 deg C., and followed by two washes with 100 ml or more of TBS-T for 30′ each. The blots were scanned in laser scanner to check for complete stripping. The blots were activated with methanol for 5 seconds, washed with water for 5 minutes, and TBST for 15 minutes. The blots were blocked for 1 hour with 5% blocking reagent in TBS-T at room temperature and then washed 3 times with TBS-T (1×-15′; 2×5′ each) and probed with the primary antibody for PKM2, SDHB or SDHC in 5% BSA in TBS-T by incubation overnight at 4 deg C. with gentle shaking. The primary antibody for SDHC (ABNOVA H00006391-M02; antimouse) was at 1:500 dilution. The primary antibody for SDHB was from Abcam ab4714-200; antimouse; at 1:1000 dilution. The primary antibody for Pyruvate Kinase M2 (PKM2) was from Novus Biologicals H00005315-D0IP; antirabbit; at 1:500 dilution. After incubation with primary antibodies, the membranes were washed 3 times with TBS-T (1×-15′; 2×5′ each) and probed with the secondary antibody (SDHB & C antimouse; and PKM2 antirabbit; 1:10,000 dilution) for 1 h on the orbital tilting shaker at room temperature. […]

pancreatic cancer = conditions: intravenous

COC1=C(OC)C(=O)C(C/C=C(\C)CC/C=C(\C)CC/C=C(\C)CC/C=C(\C)CC/C=C(\C)CC/C=C(\C)CC/C=C(\C)CC/C=C(\C)CC/C=C(\C)CCC=C(C)C)=C(C)C1=O [Q10, Coenzyme Q10]
DNAJA1 Regulation (SCC cells; 100 μM Q10, at 6 hours): Up regulated at 6
DNAJB5 Regulation (SCC cells; 100 μM Q10, at 6 hours): Down regulated
DNAJB13 Regulation (SCC cells; 100 μM Q10, at 6 hours): Down regulated
DNAJC4 Regulation (SCC cells; 100 μM Q10, at 6 hours): Down regulated
DNAJC5B Regulation (SCC cells; 100 μM Q10, at 6 hours): Down regulated
DNAJC12 Regulation (SCC cells; 100 μM Q10, at 6 hours): Down regulated
HSPA8 Regulation (SCC cells; 100 μM Q10, at 6 hours): Up regulated at 6
HSPH1 Regulation (SCC cells; 100 μM Q10, at 6 hours): Up regulated at 6
CCT6B Regulation (SCC cells; 100 μM Q10, at 24 hours): Down regulated
levels of examined proteins (a variety of cell types): several of the examined proteins were upregulated or downregulated
ECAR rates (HASMC cells): downward trend of ECAR rates
solubility in water [1]: insoluble in water
Expression (2D spot) (SKMEL-28 cells; 3 hr, 50 uM Q10): down
Expression (2D spot) (SKMEL-28 cells; 3 hr, 100 uM Q10): down
Expression (2D spot) (SKMEL-28 cells; 6 hr, 50 uM Q10, protein EIF6): up
Expression (2D spot) (SKMEL-28 cells; 6 hr, 50 uM Q10, protein LMNB1): down
Expression (2D spot) (SKMEL-28 cells; 6 hr, 100 uM Q10, protein EIF6): down
Expression (2D spot) (SKMEL-28 cells; 6 hr, 100 uM Q10, protein VIM): up
Expression (2D spot) (SKMEL-28 cells; 12 hr, 50 uM Q10, protein LGALS1): down
Expression (2D spot) (SKMEL-28 cells; 12 hr, 50 uM Q10, protein PDCD6IP): up
Expression (2D spot) (SKMEL-28 cells; 12 hr, 100 uM Q10): up
Expression (2D spot) (SKMEL-28 cells; 24 hr, 50 uM Q10): down
PPARGCIA mRNA [2]: normalized or were slightly upregulated
SDH protein levels (SDH Subunit B): increase SDH protein levels
animals alive (pancreatic cancer; 5 mg/kg (Group D), after 28 days): most of the animals
animals alive (pancreatic cancer; 10 mg/kg (Group E), after 28 days): most of the animals
animals alive (pancreatic cancer; 25 mg/kg (Group F), after 28 days): most of the animals
animals alive (pancreatic cancer; 50 mg/kg (Group G), at 28 days): all of the animals

Reference: patent US10351915B2 (Berg LLC, priority 2009, dated 2019)
